In US5807827A, “Des-Tyr dynorphin analogues” (Des-Tyr Dynorphin Partnership, priority 1997, dated 1998):
Ends that are not written are not given here.

Columns and labels:
[1] = tested on: morphine tolerant (that is, addicted) mice; test: Tail-flick antinociceptive activity of morphine in morphine tolerant animals; format: in vivo; conditions: control 2: addicted animals, no peptide
Experimental: (§1) Analgesia was measured by the tail-flick method of D'Amour and Smith, J. Pharmac. Exp. Ther. , 72, pp. 74-79 (1941), incorporated herein by reference, as modified by Tulunay and Takemori, J. Pharmac. Exp. Ther., 190, pp. 395-400 (1974), incorporated herein by reference. For ED50 (e.g., effective does for 50% of the test group) determinations, the animals' responses were made quantal by establishing an endpoint which represented a significant increase in reaction time. The endpoint was an increase in reaction time of an individual animal of greater than 3 SD (e.g., standard deviation) of the control mean reaction time for all animals used in the assay. The usual control mean reaction time was 3.1±0.05 sec. Nonresponding animals were removed from the heat stimulus when reaction time exceeded 10 sec. to avoid tail damage.
(§2) Drugs were injected 30 minutes prior to testing, unless otherwise indicated. Morphine was injected subcutaneously (s.c.) whereas the peptides were injected (i.v.) in […] saline.
(§3) Morphine tolerance was established by implanting morphine pellets, 75 mg base, subcutaneously by the method of Way et al., J. Pharmac. Exp. Ther., 167, pp. 1-8 (1969), incorporated herein by reference. The drug used was morphine sulfate (Mallinckrodt Chemical Works, St. Louis, Mo.). […]

[2] = tested on: naive, unaddicted (that is, normal) animals; test: Tail-flick antinociceptive activity of morphine in naive animals; format: in vivo, mice; conditions: control 1: naive, no peptide
Experimental: as §1, §2, §3

[3] = tested on: morphine tolerant (addicted) animals; test: Naloxone-precipitated narcotic withdrawal (withdrawal jumping) in morphine pellet-implanted animals; format: in vivo, mice
Experimental: Morphine tolerance was established by implanting morphine pellets, 75 mg base, subcutaneously by the method of Way et al., J. Pharmac. Exp. Ther., 167, pp. 1-8 (1969), incorporated herein by reference. The drug used was morphine sulfate (Mallinckrodt Chemical Works, St. Louis, Mo.). The ED50 values, their 95% confidence limits and significance of the potency ratio between two ED50. values were determined by the method of Litchfield and Wilcoxon, J. Pharmac. Exp. Ther., 96, 99-113 (1949), incorporated herein by reference.
The morphine tolerant (addicted) animals had pellets implanted for three days. The animals were then challenged with naloxone doses (while the morphine pellet remained in place). […] Table 1 summarizes the data for the control animals and for groups of animals treated with three different peptides. Each peptide was in a dose of 5 μmol/kg i.v. before administration of the naloxone.
However, when any of the three peptides shown in Table 1 was administered five minutes before administration of the naloxone, then much more naloxone was needed to precipitate the animal into a state of narcotic withdrawal. This means that each of the three peptides shown in Table 1 caused the addicted animal to be not as dependent on morphine as it would be without such pretreatment.
The animals and test procedures used were analogous to those described in Example 1. […]

opioid receptor = conditions: cited from earlier work
[4] = tested on: macrophage-colony stimulating factor; conditions: mice treated with chronic morphine; cited from earlier work
[5] = tested on: hosts tolerant to narcotic analgesic; conditions: cited from earlier work

CN1CC[C@]23c4c5ccc(O)c4O[C@H]2[C@@H](O)C=C[C@H]3[C@H]1C5 [Morphine, morphine]
Tolerance Index ([1]; relative to naive control): 8.5 (5.7-12.--)
Morphine ED50 ([1]; tail flick): 55.6 (42.6-73.5) μmol/kg s.c.
Morphine ED50 [2]: 6.5 (5.0-8.9) μmol/kg s.c.

C=CCN1CC[C@]23c4c5ccc(O)c4O[C@H]2C(=O)CC[C@@]3(O)[C@H]1C5 [Naloxone, naloxone]
ED50 ([3]; Mus musculus, control addicted animals, no peptide (base line)): 79 µmol/kg

GFLRRIRPKLK [Dyn (3-13), Gly-Phe-Leu-Arg-Arg-Ile-Arg-Pro-Lys-Leu-Lys]
Observed behaviour of treated animals ([3]; Example 3): lethargic and exhibited partial paralysis of their hind quarters

Gly-Gly-Phe-Leu-Arg-Arg-Ile-Arg-Pro-Lys-Leu-Lys [des-Tyr Dyn A (1-13)]
Competition in assays with various ligands (opioid receptor): did not compete at all

Tyr-Gly-Gly-Phe-Leu-Arg-Arg-Ile-Arg-Pro (YGGFLRRIRP-NH2) [SEQ ID NO:3]
Block of opioid inhibition of macrophage-colony stimulating factor [4]: block the opioid inhibition of macrophage-colony stimulating factor of morphine in a dose-dependent manner

Tyr-Gly-Gly-Phe-Leu-Arg-Arg-Ile-Arg-Pro-Lys-Leu-Lys (YGGFLRRIRPKLK) [SEQ ID NO:2]
Block of opioid inhibition of macrophage-colony stimulating factor [4]: block the opioid inhibition of macrophage-colony stimulating factor of morphine in a dose-dependent manner
Effect on analgesic effect of narcotic analgesic [5]: potentiates the analgesic effect in tolerant hosts
